Data as given in patent publication US20250282895A1, “PHARMACEUTICAL COMPOSITIONS OF CHEMOTHERAPEUTIC AGENTS BASED ON BETA-S[…]-AMINO ACID DERIVATIVES” (priority 2021, published 2025).
Structures can show the parent of a compound that is named as a salt.

Assay: Comparative stability, Formulation 2 (based on Alkeran)
Format: physicochemical
Conditions: Formulation 2, 25° C.
Description: The stability of Compound (1c) either as the HCl salt or as the free base was compared to the stability of melphalan HCl and/or bendamustine HCl in various pharmaceutical formulations and at different concentrations and at temperatures of 0° C. or 25° C.
The stability of the compounds in the pharmaceutical formulations was determined at concentrations within the range from 0.4 mg/mL to 0.5 mg/mL, from 0.9 mg/mL to 1.1 mg/mL, and from 1.8 mg/mL to 2.1 mg/mL.
The amount of the active pharmaceutical ingredient (API) (Compound (1c), melphalan or bendamustine) in the pharmaceutical formulations at different times during storage was determined using HPLC/UV as described in detail for Example 4 and Example 5.
Alkeran® is an injectable formulation of melphalan-HCl approved by the FDA. Alkeran® for injection is supplied as a sterile, nonpyrogenic, freeze-dried powder. Each vial contains melphalan hydrochloride equivalent to 50 mg melphalan and 20 mg povidone (polyvinylpyrrolidinone, PVP). The solid powder is recons trued in a sterile diluent containing 0.2 g of sodium citrate, 6.0 mL of propylene glycol, and 0.52 mL of ethanol (96%) and Water for Injection for a total of 10 mL. This provides a nominal 5 mg/mL solution of melphalan (admixture). The dose to be administered is immediately diluted in 0.9% sodium chloride injection, USP, to a concentration not greater than 0.45 mg/mL. Alkeran® for injection is administered intravenously.
A stock solution was prepared by dissolving 68.8 mg (0.206 mmol) of Compound (1c) (free base) and 25.0 mg of Plasdone® C-12 (Povidone; Ashland, 830796) in about 20.0 mL of a mixture of acetonitrile/water (1:1, v/v) with vortexing in clean graduated glass cylinder (25 mL). A solution of 0.407 mL of 0.5072 M aq. HCl (0.206 mmol, 1.0 eq.; Fluka, 318957) was added with gentle vortexing, and the resulting clear solution was further diluted to 25.0 mL with a mixture of acetonitrile/water (1:1, v/v) with gentle vortexing to afford a stock solution of Compound (1c) as a mono-HCl salt of a concentration 2.75 mg/mL and a Plasdone® concentration of 1.0 mg/mL. This solution was filtered through a 0.45 μm nylon syringe filter into a clean 50 mL Erlenmeyer flask. Aliquots of 2.0 mL (2× 1.0 mL; 2× 2.75 mg) of this stock solution were rapidly pipetted into clean 12 mL scintillation vials. The aliquots were frozen at −78° C. (dry ice/acetone bath) and lyophilized at about 100 mTorr for about 16 hours to provide test vials each containing 6.1 mg (0.0165 mmol) of Compound (1c) mono-hydrochloride salt (mono-HCl salt) (corresponding to 5.5 mg of Compound (1c), free base, as a colorless powdery solid.
A stock solution was prepared by dissolving 62.5 mg (0.205 mmol) of melphalan (free base; SigmaAldrich, M2011) and 25.0 mg of Plasdone® C-12 (Povidone; Ashland, 830796) in about 20.0 mL of a mixture of acetonitrile/water (1:1, v/v) with vortexing in clean graduated glass cylinder (25 mL). A solution of 0.404 mL of 0.5072 M aq. HCl (0.205 mmol, 1.0 eq.; Fluka, 318957) was added with gentle vortexing, and the resulting clear solution was further diluted to 25.0 mL with a mixture of acetonitrile/water (1:1, v/v) with gentle vortexing to afford a stock solution of melphalan as a mono-HCl salt of a concentration 2.50 mg/mL and a Plasdone® concentration of 1.0 mg/mL. This solution was filtered through a 0.45 μm nylon syringe filter into a clean 50 mL Erlenmeyer flask. Aliquots of 2.0 mL (2× 1.0 mL; 2×2.50 mg) of this stock solution were rapidly pipetted into clean 12 mL scintillation vials. The aliquots were frozen at −78° C. (dry ice/acetone bath) and lyophilized at about 100 mTorr for about 16 hours to provide test vials each containing 5.6 mg (0.0164 mmol) of melphalan mono-hydrochloride salt (mono-HCl salt) (corresponding to 5.0 mg of melphalan as a free base) as a colorless powdery solid. […]

[1] = pH 5.5-5.8, 0.5 hours, 0.4-0.5 mg/mL
[2] = pH 5.5-5.8, 0.5 hours, 0.9-1.1 mg/mL
[3] = pH 5.5-5.8, 0.5 hours, 1.8-2.1 mg/mL
[4] = pH 5.5-5.8, 2.0 hours, 0.4-0.5 mg/mL
[5] = pH 5.5-5.8, 2.0 hours, 0.9-1.1 mg/mL
[6] = pH 5.5-5.8, 2.0 hours, 1.8-2.1 mg/mL

Compound | % API [1] [%] | % API [2] [%] | % API [3] [%] | % API [4] [%] | % API [5] [%] | % API [6] [%]
Cc1ccc(N(CCCl)CCCl)cc1C[C@H](N)CC(=O)O [Compound (1c)•HCl, (S)-3-amino-4-(5-(bis(2-chloroethyl)amino)-2-methylphenyl) butanoic acid mono hydrochloride salt] | 91 | 89 | 89 | 72 | 60 | 62
Cl.N[C@@H](Cc1ccc(N(CCCl)CCCl)cc1)C(=O)O [Melphalan•HCl, 4-[bis(2-chloroethyl)amino]-L-phenylalanine hydrochloride, reference compound] | 95 | 91 | 91 | 84 | 71 | 75
